Measured values as given in the NIST ThermoML archive (doi:10.1016/j.fluid.2004.12.005).
Numbers after ± are expanded uncertainties.

Tests used:
[1] = excess molar enthalpy (molar enthalpy of mixing); xn = mol fraction of the nth substance listed; details: Liquid, Flow calorimetry
[2] = activity coefficient (dimensionless); of the first substance listed, at infinite dilution; xn = mol fraction of the nth substance listed; details: Liquid, Chromatography, x1 = 0
[3] = Solid-liquid equilibrium temperature; details: 100 kPa; Crystal; visual observation

COC(C)=O [methyl ethanoate] + CCCCCC
[1]
Details | excess molar enthalpy [kcal/mol]
363.15 K, 1617 kPa, x1 = 0.0801 | 0.119 ± 0.00263
363.15 K, 1617 kPa, x1 = 0.1552 | 0.211 ± 0.00454
363.15 K, 1617 kPa, x1 = 0.2259 | 0.28 ± 0.00598
363.15 K, 1617 kPa, x1 = 0.2925 | 0.331 ± 0.00717
363.15 K, 1617 kPa, x1 = 0.3554 | 0.365 ± 0.00789
363.15 K, 1617 kPa, x1 = 0.4148 | 0.386 ± 0.00837
363.15 K, 1617 kPa, x1 = 0.471 | 0.397 ± 0.00837
363.15 K, 1617 kPa, x1 = 0.5244 | 0.398 ± 0.0086
363.15 K, 1617 kPa, x1 = 0.575 | 0.392 ± 0.00837
363.15 K, 1617 kPa, x1 = 0.6232 | 0.382 ± 0.00813
363.15 K, 1617 kPa, x1 = 0.669 | 0.361 ± 0.00765
363.15 K, 1617 kPa, x1 = 0.7127 | 0.337 ± 0.00717
363.15 K, 1617 kPa, x1 = 0.7544 | 0.308 ± 0.00669
363.15 K, 1617 kPa, x1 = 0.7942 | 0.274 ± 0.00598
363.15 K, 1617 kPa, x1 = 0.8322 | 0.237 ± 0.00502
363.15 K, 1617 kPa, x1 = 0.8687 | 0.196 ± 0.0043
363.15 K, 1617 kPa, x1 = 0.9036 | 0.151 ± 0.00335
363.15 K, 1617 kPa, x1 = 0.937 | 0.103 ± 0.00225
363.15 K, 1617 kPa, x1 = 0.9692 | 0.0525 ± 0.00117
413.15 K, 1376 kPa, x1 = 0.0801 | 0.119 ± 0.00263
413.15 K, 1376 kPa, x1 = 0.1552 | 0.215 ± 0.00454
413.15 K, 1376 kPa, x1 = 0.2259 | 0.287 ± 0.00621
413.15 K, 1376 kPa, x1 = 0.2925 | 0.34 ± 0.00717
413.15 K, 1376 kPa, x1 = 0.3553 | 0.377 ± 0.00813
413.15 K, 1376 kPa, x1 = 0.4148 | 0.401 ± 0.0086
413.15 K, 1376 kPa, x1 = 0.471 | 0.413 ± 0.00884
413.15 K, 1376 kPa, x1 = 0.5244 | 0.415 ± 0.00884
413.15 K, 1376 kPa, x1 = 0.575 | 0.41 ± 0.00884
413.15 K, 1376 kPa, x1 = 0.6232 | 0.399 ± 0.0086
413.15 K, 1376 kPa, x1 = 0.669 | 0.379 ± 0.00813
413.15 K, 1376 kPa, x1 = 0.7127 | 0.354 ± 0.00765
413.15 K, 1376 kPa, x1 = 0.7544 | 0.321 ± 0.00693
413.15 K, 1376 kPa, x1 = 0.7942 | 0.286 ± 0.00621
413.15 K, 1376 kPa, x1 = 0.8322 | 0.246 ± 0.00526
413.15 K, 1376 kPa, x1 = 0.8687 | 0.203 ± 0.0043
413.15 K, 1376 kPa, x1 = 0.9036 | 0.155 ± 0.00335
413.15 K, 1376 kPa, x1 = 0.937 | 0.107 ± 0.00232
413.15 K, 1376 kPa, x1 = 0.9692 | 0.0543 ± 0.00122

CCOC(C)=O [ethyl acetate] + CCCCCCCCCC
[2]
Details | activity coefficient
303.16 K | 3.07 ± 0.18
313.14 K | 2.95 ± 0.17
323.17 K | 2.84 ± 0.17
333.16 K | 2.75 ± 0.16

CCOC(C)=O [ethyl acetate] + CCCCCCCCCCCC
[2]
Details | activity coefficient
303.16 K | 3.25 ± 0.19
313.17 K | 3.05 ± 0.18
323.2 K | 2.88 ± 0.17
333.16 K | 2.71 ± 0.16

Cc1ccc(C)cc1 [1,4-dimethylbenzene]
Details | Solid-liquid equilibrium temperature [K]
[3] | 286.45 ± 0.17

CCOC(C)=O [ethyl acetate] + CCCCCC
[1]
Details | excess molar enthalpy [kcal/mol]
363.15 K, 1583 kPa, x2 = 0.0377 | 0.042 ± 0.000956
363.15 K, 1583 kPa, x2 = 0.0764 | 0.0851 ± 0.00186
363.15 K, 1583 kPa, x2 = 0.1162 | 0.128 ± 0.00287
363.15 K, 1583 kPa, x2 = 0.157 | 0.164 ± 0.00359
363.15 K, 1583 kPa, x2 = 0.1989 | 0.196 ± 0.0043
363.15 K, 1583 kPa, x2 = 0.242 | 0.228 ± 0.00478
363.15 K, 1583 kPa, x2 = 0.2862 | 0.254 ± 0.0055
363.15 K, 1583 kPa, x2 = 0.3318 | 0.275 ± 0.00598
363.15 K, 1583 kPa, x2 = 0.3786 | 0.292 ± 0.00621
363.15 K, 1583 kPa, x2 = 0.4269 | 0.305 ± 0.00645
363.15 K, 1583 kPa, x2 = 0.4765 | 0.309 ± 0.00669
363.15 K, 1583 kPa, x2 = 0.5277 | 0.31 ± 0.00669
363.15 K, 1583 kPa, x2 = 0.5804 | 0.304 ± 0.00645
363.15 K, 1583 kPa, x2 = 0.6347 | 0.291 ± 0.00621
363.15 K, 1583 kPa, x2 = 0.6908 | 0.267 ± 0.00574
363.15 K, 1583 kPa, x2 = 0.7487 | 0.237 ± 0.00502
363.15 K, 1583 kPa, x2 = 0.8084 | 0.197 ± 0.0043
363.15 K, 1583 kPa, x2 = 0.8702 | 0.146 ± 0.00311
363.15 K, 1583 kPa, x2 = 0.934 | 0.0799 ± 0.00174
413.15 K, 1376 kPa, x2 = 0.0377 | 0.0453 ± 0.00103
413.15 K, 1376 kPa, x2 = 0.0765 | 0.0863 ± 0.00189
413.15 K, 1376 kPa, x2 = 0.1162 | 0.126 ± 0.00263
413.15 K, 1376 kPa, x2 = 0.1571 | 0.162 ± 0.00359
413.15 K, 1376 kPa, x2 = 0.199 | 0.195 ± 0.0043
413.15 K, 1376 kPa, x2 = 0.2421 | 0.224 ± 0.00478
413.15 K, 1376 kPa, x2 = 0.2864 | 0.251 ± 0.00526
413.15 K, 1376 kPa, x2 = 0.332 | 0.271 ± 0.00574
413.15 K, 1376 kPa, x2 = 0.3788 | 0.288 ± 0.00621
413.15 K, 1376 kPa, x2 = 0.427 | 0.301 ± 0.00645
413.15 K, 1376 kPa, x2 = 0.4767 | 0.305 ± 0.00645
413.15 K, 1376 kPa, x2 = 0.5279 | 0.306 ± 0.00645
413.15 K, 1376 kPa, x2 = 0.5806 | 0.3 ± 0.00645
413.15 K, 1376 kPa, x2 = 0.6349 | 0.288 ± 0.00621
413.15 K, 1376 kPa, x2 = 0.691 | 0.266 ± 0.00574
413.15 K, 1376 kPa, x2 = 0.7488 | 0.236 ± 0.00502
413.15 K, 1376 kPa, x2 = 0.8086 | 0.196 ± 0.0043
413.15 K, 1376 kPa, x2 = 0.8703 | 0.144 ± 0.00311
413.15 K, 1376 kPa, x2 = 0.934 | 0.0788 ± 0.00174
